Measured values published in US20070207202A1, “PHARMACEUTICAL FORMULATIONS OF A MONOHYDRATE CRYSTAL FORM OF 2-(3-FLUORO-4-HYDROXYPHENYL)-7-VINYL-1,3-BENZOXAZOL-5-OL” (Wyeth, priority 2006, published 2007).

Assays:
Type in all cases: physicochemical
[1] = Dynamic vapor sorption (hygroscopicity); conditions: for DVS gain: 0–90% RH
Text: Dynamic Vapor Sorption (Allentown, Pa.) was used to measure the hygroscopicity of the anhydrate and monohydrate of the invention (see FIGS. 6 and 7). The step conditions were three hours each at 0%, 30%, 52.5%, 75% and 90% RH, two full cycles.

[2] = Separate long term study of micronized and non-micronized anhydrate (XRPD)
[3] = Water solubility of the two crystal forms
[4] = Long term stability of crystal forms (XRPD, TGA, HPLC); conditions: non-micronized, 40° C./75% RH (monohydrate also 40° C. without humidity control), three months
Procedure: Non-micronized samples of monohydrate and anhydrate were stored at 40° C./75% RH for three months. The monohydrate was also stored at 40° C. without humidity control. During the three months, the samples were checked after two weeks, one month, two months, and three months.

[5] = Medium term stability of crystal form (XRPD and TGA)
Procedure: Samples of monohydrate were stored at room temperature, 56° C., and 70° C. for one week. At room temperature, humidity was maintained at 0% RH. Humidity was not controlled for the higher temperatures.
The samples were analyzed by XRPD and TGA.

[6] = Short term stability of crystal form (XRPD)

SMILES | DVS gain ([1]; listed as anhydrous crystal form) | crystal form transformation by XRPD ([2]; micronized samples, 25° C./60% RH, three months) | crystal form transformation by XRPD ([2]; micronized samples, 40° C./75% RH, one month) | crystal form transformation by XRPD ([2]; non-micronized samples, 40° C./75% RH) | water solubility compared between the two forms (in words) [3] | hygroscopicity (DVS weight gain, in words) [1] | DVS gain ([1]; listed as monohydrate crystal form) | chemical stability by HPLC [4] | crystal form transformation by XRPD and TGA [4] | crystal form stability by XRPD and TGA ([5]; 56° C., humidity not controlled, one week) | crystal form stability by XRPD and TGA ([5]; 70° C., humidity not controlled, 1 day) | crystal form stability by XRPD and TGA ([5]; 70° C., humidity not controlled, 4 days) | crystal form stability by XRPD and TGA ([5]; 70° C., humidity not controlled, 7 days) | crystal form stability by XRPD and TGA ([5]; room temperature, 0% RH, one week) | crystal form stability by XRPD ([6]; 70° C., one hour) | crystal form stability by XRPD ([6]; 90° C., one half hour) | crystal form stability by XRPD ([6]; 90° C., one hour)
C=Cc1cc(O)cc2nc(-c3ccc(O)c(F)c3)oc12 [anhydrate, 2-(3-fluoro-4-hydroxyphenyl)-7-vinyl-1,3-benzoxazol-5-ol] | 0.2% gain (0–90% RH) | did not transform to the monohydrate | partially transform to the monohydrate | did not show any obvious transformation | – | – | – | – | – | – | – | – | – | – | – | – | –
C=Cc1cc(O)cc2nc(-c3ccc(O)c(F)c3)oc12 [monohydrate, 2-(3-fluoro-4-hydroxyphenyl)-7-vinyl-1,3-benzoxazol-5-ol] | – | – | – | – | significantly lower solubility than the anhydrate | largely non-hygroscopic | 0.1% gain (0–90% RH) | chemically stable | did not transform | no obvious dehydration | no obvious hydration | partially dehydrated | mostly dehydrated | no obvious dehydration | stable | partially dehydrated | completely dehydrated
